# Reference: patent publication US6946482B2, “Motilide compounds” (Kosan Biosciences, Inc., priority 2002, dated 2005)
# Where two headings read alike, the source gives them in different places.
# What was measured:
# [1] = target: T1, motilin receptor (Homo sapiens, UniProt O43193); assay: Motilin receptor activation, calcium-influx assay; format: cell-based
# T1 construct: expressed in transfected cells
# Source text: The compounds of formula (I) are agonists of the motilin receptor.
# [2] = test system: Streptococcus pneumoniae ATCC 6301; assay: In vitro susceptibility test (MIC); format: cell-based; settings: ATCC6301
# Protocol: Antibacterial activity (Table 2) was determined by in vitro susceptibility tests against Streptococcus pneumoniae ATCC 6301, a macrolide-sensitive strain, using methods known in the microbiological art.
# [3] = target: T1, motilin receptor; assay: Motilin receptor desensitization, cell-based assay
# Protocol: Compounds were tested for motilin receptor desensitization using the cell-based assay described in Carreras et al., US 2002/0192709 A1 (2002), “Methods for Evaluating Therapeutic Efficacy,” the disclosure of which is incorporated herein by reference.
# [4] = target: T1, motilin receptor; settings: cell-based and muscle strip contractility assays; cited from earlier work
# [5] = test system: gut contraction; settings: conscious dogs, dose 1 mg/kg; cited from earlier work
# [6] = target: T1, motilin receptor; settings: cited from earlier work
# [7] = Streptococcus pneumoniae ATCC 6301, macrolide-sensitive strain, read-out: MIC
# T1 sequence (O43193 whole entry): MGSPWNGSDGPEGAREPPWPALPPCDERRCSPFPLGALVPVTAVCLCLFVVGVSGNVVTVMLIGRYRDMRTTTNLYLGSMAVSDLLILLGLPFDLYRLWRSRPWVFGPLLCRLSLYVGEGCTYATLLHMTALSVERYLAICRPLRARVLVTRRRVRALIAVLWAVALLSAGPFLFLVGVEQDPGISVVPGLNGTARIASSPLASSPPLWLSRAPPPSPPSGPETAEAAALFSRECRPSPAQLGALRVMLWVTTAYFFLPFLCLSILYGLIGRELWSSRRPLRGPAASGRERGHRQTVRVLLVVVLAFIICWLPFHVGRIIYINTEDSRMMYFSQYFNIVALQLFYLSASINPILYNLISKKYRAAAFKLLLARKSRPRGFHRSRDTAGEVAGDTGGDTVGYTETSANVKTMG
SMILES,EC50 [1] [nM],"MIC [2, 7] [µg/mL]",also measured
CC[C@H]1OC(=O)[C@H](C)[C@@H](OC2C[C@@](C)(OC)C[C@H](C)O2)[C@H](C)[C@@H](OC2O[C@H](C)C[C@H](N(C)C(C)C)[C@H]2O)[C@@]2(C)CC(C)=C(O2)[C@H](C)C(=O)[C@]1(C)OC (some centres unmarked) [Compound 7],–,–,Motilin receptor desensitization (in words) [4]: show motilin receptor desensitization
"COC1(C)CC(OC2C(C)C(=O)OC(CCF)C(C)(O)C(O)C(C)C(O)C(C)CC(C)(O)C(OC3OC(C)CC(N(C)C)C3O)C2C)OC(C)C1O [C, (9S)-9-dihydro-15-fluoroerythromycin A]",5000,–,–
"CCCC1OC(=O)C(C)C(OC2CC(C)(OC)C(O)C(C)O2)C(C)C(OC2OC(C)CC(N(C)C)C2O)C(C)(O)CC(C)C(O)C(C)C(O)C1(C)O [F, (9S)-9-dihydro-15-methylerythromycin A]",8600,1,Activity following exposure to compound (% of original activity retained) ([3]; 1 μM compound): 100%; Activity following exposure to compound (% of original activity retained) ([3]; 10 μM compound): 100%
"CCN(C)C1CC(C)OC(OC2C(C)C(OC3CC(C)(OC)C(O)C(C)O3)C(C)C(=O)OC(CCF)C(C)(O)C(O)C(C)C(O)C(C)CC2(C)O)C1O [D, N-desmethyl-N-ethyl(9S)-9-dihydro-15-fluoroerythromycin A]",2000,–,–
"CCCC1OC(=O)C(C)C(OC2CC(C)(OC)C(O)C(C)O2)C(C)C(OC2OC(C)CC(N(C)C(C)CC)C2O)C(C)(O)CC(C)C(O)C(C)C(O)C1(C)O [H, N-desmethyl-N-(2-butyl) (9S)-9-dihydro-15-methylerythromycin A]",3300,–,–
"CCC1OC(=O)C(C)C(OC2CC(C)(OC)C(O)C(C)O2)C(C)C(OC2OC(C)CC(N(C)C)C2O)C(C)(O)CC(C)C(O)C(C)C(O)C1(C)O [A, (9S)-9-dihydroerythromycin A, reference compound]",2500,0.3,"Activity relative to erythromycin, stimulation of gut contraction [5]: 65%"
"CCC1OC(=O)C(C)C(OC2CC(C)(OC)C(O)C(C)O2)C(C)C(OC2OC(C)CC(N(C)C)C2O)C(C)(O)CC(C)C(=O)C(C)C(O)C1(C)O (centres unmarked) [Erythromycin A, reference compound]",–,–,MIC ([2]; Streptococcus pneumoniae): 0.03 µg/mL; Motilin agonist activity (in words) [6]: motilin agonist activity

# Further lines, with some results ahead:
EC50 [1] [nM],"MIC [2, 7] [µg/mL]",SMILES,also measured
1400,> 100,"CCCC1OC(=O)C(C)C(OC2CC(C)(OC)C(O)C(C)O2)C(C)C(OC2OC(C)CC(N(C)C(C)C)C2O)C(C)(O)CC(C)C(O)C(C)C(O)C1(C)O [G, N-desmethyl-N-isopropyl-15-methyl-(9S)-9-dihydroerythromycin A]",Activity following exposure to compound (% of original activity retained) ([3]; 1 μM compound): 100%; Activity following exposure to compound (% of original activity retained) ([3]; 10 μM compound): 100%
520,–,"COC1(C)CC(OC2C(C)C(=O)OC(CCF)C(C)(O)C(O)C(C)C(O)C(C)CC(C)(O)C(OC3OC(C)CC(N(C)C(C)C)C3O)C2C)OC(C)C1O [E, N-desmethyl-N-isopropyl(9S)-9-dihydro-15-fluoroerythromycin A]",–
490,–,CCC1OC(=O)C(C)C(OC2CC(C)(OC)C(O)C(C)O2)C(C)C(OC2OC(C)CC(N(C)C(C)C)C2O)C(C)(O)CC(C)C(O)C(C)C(O)C1(C)O (centres unmarked) [B],–
160,> 100,"CCC1OC(=O)C(C)C(OC2CC(C)(OC)C(O)C(C)O2)C(C)C(OC2OC(C)CC(N(C)C(C)C)C2O)C(C)(O)CC(C)C(O)C(C)CC1C [J, N-desmethyl-N-isopropyl-11-deoxy-(9S)-9-dihydroerythromycin B]",Activity following exposure to compound (% of original activity retained) ([3]; 1 μM compound): 88%; Activity following exposure to compound (% of original activity retained) ([3]; 10 μM compound): 88%
